According to PubChem BioAssay (NCI):
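The compound was tested at five concentrations on cells cultured in 96-well plates, with a 48-hour exposure period. The concentration for 50% growth inhibition is given as GI50. TGI: total growth inhibition.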

What was measured:
Assay in all cases: DTP human tumour cell line panel, 48 h
[1] = tested on: A549 NSCLC
[2] = tested on: CAKI-1 renal
[3] = tested on: HOP-62 NSCLC
[4] = tested on: M14 melanoma
[5] = tested on: MDA-MB-435
[6] = tested on: MOLT-4 leukemia
[7] = tested on: NCI-H226 lung
[8] = tested on: SW-620 colon
[9] = tested on: T-47D breast
[10] = tested on: U251 CNS

SMILES | GI50 [1] | TGI [1] | GI50 [2] | TGI [3] | TGI [4] | GI50 [5] | GI50 [6] | TGI [6] | GI50 [7] | TGI [7] | GI50 [8] | TGI [8] | TGI [9] | GI50 [10] | TGI [10] | TGI [2] | TGI [5] | GI50 [4] | GI50 [3] | GI50 [9]
C[C@@H]1CC[C@H]2C(COC/C=C/COCC3=C(C(F)(F)F)O[C@@H]4O[C@@]5(C)CC[C@H]6[C@H](C)CC[C@@H]3[C@@]46OO5)=C(C(F)(F)F)O[C@@H]3O[C@@]4(C)CC[C@@H]1[C@]32OO4 | < 0.0138 µM | > 50.1 µM | 0.158 µM | > 100 µM | > 100 µM | < 0.012 µM | < 0.01 µM | 40.6 µM | 0.0199 µM | 0.191 µM | 0.0101 µM | > 100 µM | > 100 µM | < 0.01 µM | 0.179 µM | – | – | – | – | –
CC(C)(C)C1CCC2(CC1)CCN(CCCN1CCOCC1)CC2 | – | > 88.8 µM | – | > 57.8 µM | 27.8 µM | – | – | > 65.4 µM | – | > 100 µM | – | > 59.3 µM | > 100 µM | – | > 53.3 µM | > 88 µM | > 100 µM | – | – | –
Cn1cnc([N+](=O)[O-])c1SCC(=O)O | – | > 100 µM | – | > 100 µM | > 100 µM | – | – | – | – | > 100 µM | – | > 100 µM | > 100 µM | – | > 100 µM | > 100 µM | > 100 µM | – | – | –
COc1cc2ccc1-c1cc(ccc1O)CC1c3cc4c(cc3CCN1C)Oc1c(OC)cc3c(c1O4)C(C2)N(C)CC3 (stereo not drawn) | – | 3.41 µM | – | 3.65 µM | 3.32 µM | – | – | 4.22 µM | – | 4.08 µM | – | 3.31 µM | – | – | 3.07 µM | 5.79 µM | – | – | – | –
CC(C)CNc1nc(N)[nH]c(=O)c1NC=O | – | > 100 µM | – | > 100 µM | > 100 µM | – | – | > 100 µM | – | > 100 µM | – | > 100 µM | > 100 µM | – | > 100 µM | > 100 µM | > 100 µM | – | – | –
O=C(c1cc(Br)ccc1O)c1cc(Br)ccc1O | – | 32 µM | – | 34.3 µM | 29.1 µM | – | – | 39 µM | – | 42 µM | – | 30.6 µM | 29.2 µM | – | 28.8 µM | 32.2 µM | 29.3 µM | – | – | –
Oc1cc(O)cc(/C=C/c2ccc(O)c(O)c2)c1 | – | 53.4 µM | – | 28.7 µM | – | – | – | > 46.5 µM | – | 42.1 µM | – | > 51.8 µM | – | – | 42.8 µM | > 30.8 µM | – | – | – | –
O=C(O)c1ccccn1 | – | > 100 µM | – | > 100 µM | > 100 µM | – | – | > 100 µM | – | > 100 µM | – | > 100 µM | > 100 µM | – | > 100 µM | > 100 µM | > 100 µM | – | – | –
CN(C)c1ccc(C2CC(=O)C(C#N)=C(c3ccccc3)NN2C)cc1 (stereo not drawn) | – | > 100 µM | – | 62.5 µM | 35.5 µM | – | – | > 100 µM | – | > 100 µM | – | > 100 µM | – | – | > 100 µM | > 100 µM | – | – | – | –
CN(C)[C@@H]1C(=O)C(C(=O)NCNCCCC(=O)O)=C(O)[C@@]2(O)C(=O)C3=C(O)c4c(O)cccc4[C@@](C)(O)[C@H]3C[C@@H]12 | – | > 100 µM | – | > 100 µM | > 100 µM | – | – | > 100 µM | – | > 100 µM | – | > 100 µM | – | – | > 100 µM | > 100 µM | – | – | – | –
N=C(N)c1ccc(-c2ccc(-c3ccc(Cl)cn3)s2)cc1 | – | – | – | – | 3.24 µM | 1.65 µM | – | – | 2.76 µM | 12 µM | – | – | – | – | – | – | 3.02 µM | 1.77 µM | – | –
CN(C)c1ccc2nc3c(C(=O)O)cc(=O)c(O)c-3oc2c1 | – | > 100 µM | – | > 100 µM | 49.8 µM | – | – | 51.8 µM | – | > 100 µM | – | > 100 µM | 47.4 µM | – | > 100 µM | > 100 µM | 54.9 µM | – | – | –
Cc1ccc(C)c(/C(=N\N=C(N)N)C2CC2)c1 | – | > 100 µM | – | > 100 µM | > 100 µM | – | – | > 100 µM | – | > 100 µM | – | > 100 µM | > 100 µM | – | 36.2 µM | > 100 µM | 63.9 µM | – | – | –
c1ccc2c[n+](CCCCCCCCCC[n+]3ccc4ccccc4c3)ccc2c1 | – | > 10 µM | – | > 10 µM | > 10 µM | – | – | – | – | > 10 µM | – | > 10 µM | > 10 µM | – | > 10 µM | > 10 µM | > 10 µM | – | – | –
CCN(CC)Cc1ccc2cccnc2c1O | – | 32.9 µM | – | 65.4 µM | – | – | – | 10 µM | – | > 100 µM | – | > 100 µM | – | – | > 100 µM | > 100 µM | > 100 µM | – | – | –
NCS(=O)(=O)O | – | > 100 µM | – | > 100 µM | > 100 µM | – | – | > 100 µM | – | > 100 µM | – | > 100 µM | > 100 µM | – | > 100 µM | > 100 µM | > 100 µM | – | – | –
Cc1c2ccnc(-c3ccccc3)c2cc2c1[nH]c1ccccc12 | – | 10.3 µM | – | 6.61 µM | – | – | – | 6.96 µM | – | 5.23 µM | – | 46.9 µM | – | – | 7.76 µM | 6.96 µM | – | – | – | –
Cc1ncc(CO)c(CN)c1O | – | > 100 µM | – | > 100 µM | > 100 µM | – | – | > 100 µM | – | > 100 µM | – | > 100 µM | > 100 µM | – | > 100 µM | > 100 µM | > 100 µM | – | – | –
COc1ccc(CNc2nc(NCc3ccc(OC)cc3)nc(NC(C)C)n2)cc1 | – | 33.7 µM | – | 37.5 µM | 16.7 µM | – | – | > 100 µM | – | – | – | > 100 µM | > 100 µM | – | > 100 µM | 66.4 µM | 11.2 µM | – | – | –
O=C(CC1(O)C(=O)Nc2ccc(Br)cc21)c1ccc(C(=O)NCC2CCC3(CC2)OOC2(CCCCC2)OO3)cc1 (stereo not drawn) | 4.3 µM | > 100 µM | 13.5 µM | 40.7 µM | 63.4 µM | – | 2.14 µM | 5.87 µM | 4.7 µM | 30 µM | 2.76 µM | 13 µM | 24.4 µM | 2.24 µM | 6.51 µM | 31.2 µM | – | 8.68 µM | 11 µM | 2.69 µM
CC[C@H](Nc1nc(N)nc(N)c1Cl)c1nc2cccc(NCc3ccc(C(=O)NO)cc3)c2c(=O)n1-c1ccccc1 | 2.33 µM | 5.73 µM | 2 µM | 4.04 µM | – | 1.7 µM | 1.47 µM | 16.6 µM | – | – | 1.63 µM | 4.71 µM | 10.7 µM | 1.51 µM | 3.08 µM | 5 µM | 3.4 µM | – | 1.67 µM | 2.15 µM
COc1cnc2c(c1)C(=O)c1c-2n(CCCN2CCNCC2)c(=O)c2cc(Cl)ccc12 | – | – | 0.414 µM | – | – | 1.25 µM | – | – | 1.04 µM | 4.91 µM | 0.0856 µM | 1.82 µM | 50.3 µM | – | – | 1.91 µM | 2.59 µM | – | – | 8.98 µM
CCOC(=O)c1c2c(c(O)c3ccccc3c(O)n(-c3ccc(C)cc3)c1C)C(=O)C=CC2=O | – | > 100 µM | – | 61.7 µM | 44.8 µM | – | – | 29.4 µM | – | > 100 µM | – | 51.5 µM | 39.4 µM | – | 52.9 µM | 43.3 µM | 35.7 µM | – | – | –
